Assay results taken from patent US9707305B2, “Formulas for diagnosing and treating hormone-dependent cancers and cancers of the organs responsible for steroid hormone synthesis” (Commissariat à l'énergie atomique et aux énergies …, priority 2011, dated 2017).

Key:
[1] = Biodistribution of the nano-emulsion of Example 1.1 in male mice (Tables 15 to 21); type: in vivo; conditions: FVB male mouse
Protocol: (§1) In the following examples, the radioactivity was counted with the TRiCarb Counter (Ref: Packard, Liquid Scintillation Analyzers; Models 2200CA).
Fluobeam 700 (Fluoptics) is the apparatus with which the whole of the organs from the biodistribution were analyzed in fluorescence as well as the one with which the biodistribution kinetics of the nano-emulsions were established in vivo. This imaging system allows viewing of the fluorescence in spectral bands from 700 to 850 nm for a 650 nm excitation. The apparatus consists of an electric case containing the laser of class 3B, its power supply and an optical head containing the CCD camera. […]

[2] = Biodistribution of the mixture of three free tracers (not formulated as nano-emulsion), comparative; type: in vivo; conditions: FVB female mouse
Protocol: as §1
Fluobeam 700 (Fluoptics) is the apparatus with which the whole of the organs from the biodistribution were analyzed in fluorescence as well as the one with which the biodistribution kinetics of the nano-emulsions were established in vivo. This imaging system allows viewing of the fluorescence in spectral bands from 700 to 850 nm for a 650 nm excitation. The apparatus consists of an electric case containing the laser of class 3B, its power supply and an optical head containing the CCD camera.
As a comparison, a mixture of three tracers ([3H]CHE, [14C]CO and DiD) (not formulated as a nano-emulsion) was injected in order to observe the distribution of the tracers in the absence of droplets being used as a distribution carrier.

[3] = 2 h after injection of free tracers (not nano-emulsion)
[4] = 6 h after injection of free tracers (not nano-emulsion)
[5] = 16 h after injection of free tracers (not nano-emulsion)
[6] = 24 h after injection of free tracers (not nano-emulsion)

## CCCCCCCCCCCCCCCCCCN1/C(=C/C=C/C=C/C2=[N+](CCCCCCCCCCCCCCCCCC)c3ccccc3C2(C)C)C(C)(C)c2ccccc21.[O-][Cl+3]([O-])([O-])[O-] [DiD, l,r-dioctadécyl-3,3,3′,3′-tetramethylindodicarbocyanine (DiD) perchlorate]
[1]; 4 h
  fluorescence intensity in Seminal gland: 179.5
  fluorescence intensity in Spleen: 407.4
  fluorescence intensity in Testicle: 470.9
[1]; 6 h
  fluorescence intensity in Seminal gland: 261.0
  fluorescence intensity in Spleen: 488.6
  fluorescence intensity in Testicle: 723.1
[1]; 16 h
  fluorescence intensity in Seminal gland: 163.0
  fluorescence intensity in Spleen: 373.3
  fluorescence intensity in Testicle: 525.4
[1]; 24 h
  fluorescence intensity in Seminal gland: 170.6
  fluorescence intensity in Spleen: 638.0
[1]; 48 h
  fluorescence intensity in Seminal gland: 166.7
  fluorescence intensity in Spleen: 656.7
  fluorescence intensity in Testicle: 648.6
[1]; 72 h
  fluorescence intensity in Seminal gland: 74.4
  fluorescence intensity in Spleen: 278.0
  fluorescence intensity in Testicle: 481.2
[1]; Seminal glands, 2 h
  fluorescence intensity in Seminal glands: 175.3
[1]; 2 h
  fluorescence intensity in Spleen: 455.7
  fluorescence intensity in Testicle: 639.9
[2]; [3]
  fluorescence intensity, Adrenal glands (MEAN): 730.45 photons per pixel, reduced to
  fluorescence intensity, Brain (MEAN): 439.56 photons per pixel, reduced to
  fluorescence intensity, Fat (MEAN): 280.30 photons per pixel, reduced to
  fluorescence intensity, Heart (MEAN): 487.37 photons per pixel, reduced to
  fluorescence intensity, Intestine (MEAN): 451.58 photons per pixel, reduced to
  fluorescence intensity, Kidney (MEAN): 862.35 photons per pixel, reduced to
  fluorescence intensity, Liver (MEAN): 2477.20 photons per pixel, reduced to
  fluorescence intensity, Lung (MEAN): 848.08 photons per pixel, reduced to
  fluorescence intensity, Muscle (MEAN): 211.84 photons per pixel, reduced to
  fluorescence intensity, Ovary (MEAN): 954.70 photons per pixel, reduced to
  fluorescence intensity, Pancreas (MEAN): 466.58 photons per pixel, reduced to
  fluorescence intensity, Salivary gland (MEAN): 399.58 photons per pixel, reduced to
  fluorescence intensity, Spleen (MEAN): 1162.07 photons per pixel, reduced to
  fluorescence intensity, Uterus (MEAN): 694.28 photons per pixel, reduced to
[2]; [4]
  fluorescence intensity, Adrenal glands (MEAN): 208.14 photons per pixel, reduced to
  fluorescence intensity, Brain (MEAN): 116.17 photons per pixel, reduced to
  fluorescence intensity, Fat (MEAN): 234.61 photons per pixel, reduced to
  fluorescence intensity, Heart (MEAN): 346.63 photons per pixel, reduced to
  fluorescence intensity, Intestine (MEAN): 363.09 photons per pixel, reduced to
  fluorescence intensity, Kidney (MEAN): 573.78 photons per pixel, reduced to
  fluorescence intensity, Liver (MEAN): 2293.21 photons per pixel, reduced to
  fluorescence intensity, Lung (MEAN): 433.52 photons per pixel, reduced to
  fluorescence intensity, Muscle (MEAN): 108.34 photons per pixel, reduced to
  fluorescence intensity, Ovary (MEAN): 250.27 photons per pixel, reduced to
  fluorescence intensity, Pancreas (MEAN): 191.73 photons per pixel, reduced to
  fluorescence intensity, Salivary gland (MEAN): 232.98 photons per pixel, reduced to
  fluorescence intensity, Spleen (MEAN): 3224.12 photons per pixel, reduced to
  fluorescence intensity, Uterus (MEAN): 506.03 photons per pixel, reduced to
[2]; [5]
  fluorescence intensity, Adrenal gland (MEAN): 1683.36 photons per pixel, reduced to
  fluorescence intensity, Brain (MEAN): −24.23 photons per pixel, reduced to
  fluorescence intensity, Fat (MEAN): 295.69 photons per pixel, reduced to
  fluorescence intensity, Heart (MEAN): 186.72 photons per pixel, reduced to
  fluorescence intensity, Intestine (MEAN): 505.69 photons per pixel, reduced to
  fluorescence intensity, Kidney (MEAN): 382.29 photons per pixel, reduced to
  fluorescence intensity, Liver (MEAN): 2954.59 photons per pixel, reduced to
  fluorescence intensity, Lung (MEAN): 370.94 photons per pixel, reduced to
  fluorescence intensity, Muscle (MEAN): 93.88 photons per pixel, reduced to
  fluorescence intensity, Ovary (MEAN): 729.53 photons per pixel, reduced to
  fluorescence intensity, Pancreas (MEAN): 101.87 photons per pixel, reduced to
  fluorescence intensity, Salivary gland (MEAN): 271.01 photons per pixel, reduced to
  fluorescence intensity, Spleen (MEAN): 3403.29 photons per pixel, reduced to
  fluorescence intensity, Uterus (MEAN): 665.40 photons per pixel, reduced to
[2]; [6]
  fluorescence intensity, Adrenal gland (MEAN): 653.68 photons per pixel, reduced to
  fluorescence intensity, Brain (MEAN): 57.68 photons per pixel, reduced to
  fluorescence intensity, Fat (MEAN): 344.99 photons per pixel, reduced to
  fluorescence intensity, Heart (MEAN): 285.67 photons per pixel, reduced to
  fluorescence intensity, Intestine (MEAN): 354.94 photons per pixel, reduced to
  fluorescence intensity, Kidney (MEAN): 397.90 photons per pixel, reduced to
  fluorescence intensity, Liver (MEAN): 2663.45 photons per pixel, reduced to
  fluorescence intensity, Lung (MEAN): 300.36 photons per pixel, reduced to
  fluorescence intensity, Muscle (MEAN): 289.03 photons per pixel, reduced to
  fluorescence intensity, Ovary (MEAN): 989.32 photons per pixel, reduced to
  fluorescence intensity, Pancreas (MEAN): 158.45 photons per pixel, reduced to
  fluorescence intensity, Salivary gland (MEAN): 187.28 photons per pixel, reduced to
  fluorescence intensity, Spleen (MEAN): 3880.70 photons per pixel, reduced to
  fluorescence intensity, Uterus (MEAN): 636.69 photons per pixel, reduced to
[2]; Tables 2 to 5 (2 to 24 h), free tracer
  accumulation in the liver and the spleen, tracer DiD alone: Strong accumulation
